ChEMBL document CHEMBL3137667, “[Drug-induced liver injury; fourteenth updated edition of the bibliographic database of liver injuries and related drugs]” (Gastroenterol Clin Biol, 2004)
Where a SMILES comes first, the peptide text is derived from it. Bridges are numbered along the chain shown (N, C = ends). [ ]: non-standard residue; d: D form. The star is where a group is joined. Threoninol(2S,3R) = C[C@@H](O)[C@H](CO)N*

Columns and labels:
[1] = Times to onset, minimal and maximal, observed in the indexed observations. [column 'DELAI' in source]; conditions: human
[2] = human
[3] = Presence of at least one case with successful reintroduction. [column 'REINT' in source]; conditions: human
[4] = Highest frequency of acute liver toxicity observed during clinical trials, expressed as a percentage. [column '% AIGUE' in source]; conditions: human
[5] = Comments (NB not yet translated). [column 'COMMENTAIRES' in source]; conditions: human
[6] = human; remark: listed apart in the source
[7] = human; remark: listed apart in the source
[8] = human; remark: listed apart in the source
[9] = human; remark: listed apart in the source
[10] = human, serum, 4383 h
[11] = human; remark: listed apart in the source
[12] = human, serum
[13] = human; remark: listed apart in the source
[14] = Highest frequency of moderate liver toxicity observed during clinical trials, expressed as a percentage. [column '% BIOL' in source]; conditions: human
[15] = Proposed mechanism(s) of liver damage. [column 'MEC' in source]; conditions: human
[16] = human; remark: listed apart in the source
[17] = human; remark: listed apart in the source
[18] = human, serum; remark: listed apart in the source
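For Hepatotoxicity (association with vascular disease) in this document: count of indexed literature references reporting vascular liver injury in humans, e.g. peliosis hepatitis, hepatic veno-occlusive disease or Budd-Chiari syndrome.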
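For Hepatotoxicity (benign tumour) in this document: value is a count of indexed literature references citing a benign tumour confirmed by histopathology.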
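For Hepatotoxicity (choleostasis) in this document: human cholestatic liver injury, shown by histopathology or by peak ALT or AST elevation over alkaline phosphatase ratio below 2, value counts indexed literature reports.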
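For Hepatotoxicity (chronic liver disease) in this document: chronic liver injury confirmed by histopathology or persistently raised serum aminotransferase activity beyond 6 months, value given as the count of indexed literature references.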
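For Hepatotoxicity (cirrhosis) in this document: value is a count of indexed literature references reporting cirrhosis confirmed by histopathology.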
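For Hepatotoxicity (cytolytic) in this document: human cytolytic liver injury, shown by histopathology or by a ratio above 5 of peak ALT or AST elevation to alkaline phosphatase elevation, value counts indexed references.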
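For Hepatotoxicity (granulomatous hepatitis) in this document: value is a count of indexed literature references reporting granulomatous liver disease confirmed by histopathology.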
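For Hepatotoxicity (malignant tumour) in this document: malignant tumour confirmed by histopathology, value gives the count of indexed literature references reporting it.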
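For Hepatotoxicity (severe hepatitis) in this document: human clinical data: severe hepatitis, meaning potentially life-threatening liver failure or clinically observed cases, the value counts how many indexed literature references report it.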
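For Hepatotoxicity (steatosis) in this document: steatosis confirmed by histopathology, value is the count of indexed references.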

| Structure (SMILES) | Hepatotoxicity (time to onset) [1] | Hepatotoxicity (malignant tumour) [2] | Hepatotoxicity (successful reintroduction) [3] | Hepatotoxicity (acute) [4] | Hepatotoxicity (comment) [5] | Hepatotoxicity (association with vascular disease) [6] | Hepatotoxicity (benign tumour) [7] | Hepatotoxicity (cytolytic) [8] | Hepatotoxicity (cirrhosis) [9] | Hepatotoxicity (chronic liver disease) [10] | Hepatotoxicity (severe hepatitis) [11] | Hepatotoxicity (moderate) [12] | Hepatotoxicity (steatosis) [13] | Hepatotoxicity (moderate) [14] | Hepatotoxicity (mechanism) [15] | Hepatotoxicity (choleostasis) [16] | Hepatotoxicity (granulomatous hepatitis) [17] | Hepatotoxicity (acute) [18] | further results |
| --- | --- | --- | --- | --- | --- | --- | --- | --- | --- | --- | --- | --- | --- | --- | --- | --- | --- | --- | --- |
| CC1=C(CC(=O)O)c2cc(F)ccc2/C1=C\c1ccc([S+](C)[O-])cc1 (configuration not stated) | 1 day - 1.5 years | 0 | yes | 0.2% | LITHIASE CHOLESTASE_PROLONGEE CHOLANGITE | 0 | 0 | 12 | 0 | 0 | 3 | 25 | 4 | 14.9% | Allergic | 22 | 0 | 29 | – |
| CC1=C(/C=C/C(C)=C/C=C/C(C)=C/CO)C(C)(C)CCC1.O=C(O)Cc1cc(I)c(Oc2ccc(O)c(I)c2)c(I)c1 | 2 weeks - 9 years | 0 | yes | – | AC_ANTI-N | 0 | 0 | – | 1 | 1 | – | 0 | 0 | – | – | – | – | 7 | Hepatotoxicity (acute) ([4]; Liver): 0%; Hepatotoxicity (cytolytic) ([8]; Liver): 7; Hepatotoxicity (severe hepatitis) ([11]; Liver): 1; Hepatotoxicity (moderate) ([14]; Liver): 0%; Hepatotoxicity (mechanism) ([15]; Liver): Allergic; Hepatotoxicity (choleostasis) ([16]; Liver): 1; Hepatotoxicity (granulomatous hepatitis) ([17]; Liver): 0 |
| C[C@@H](O)[C@H](CO)NC(=O)[C@@H]1CSSC[C@H](NC(=O)[C@H](N)Cc2ccccc2)C(=O)N[C@@H](Cc2ccccc2)C(=O)N[C@H](Cc2c[nH]c3ccccc23)C(=O)N[C@@H](CCCCN)C(=O)N[C@@H]([C@@H](C)O)C(=O)N1 (H-[dF]CF[dW]KTC-{Threoninol(2S,3R)}; disulfide 2-7) | 1 day - 14 months | 0 | yes | 0% | BOUE_BILIAIRE LITHIASE | 0 | 0 | 3 | 0 | 0 | 1 | 8 | 0 | 17.6% | Dose-dependant | 1 | 0 | 3 | – |
| CC(=O)N[C@@H](CS)C(=O)O [ACETYLCYSTEINE] | 4 days | 0 | yes | 0% | PERICHOLANGITE | 0 | 0 | 1 | 0 | 0 | 0 | 0 | 1 | 0% | Dose-dependant | 0 | 0 | 1 | – |
| COc1cc(C)c(/C=C/C(C)=C/C=C/C(C)=C/C(=O)O)c(C)c1C [ACITRETIN] | 1.5 hours - 5 months | 0 | yes | 10% | CHOLANGIOLITE CHOLESTASE_PROLONGEE AGGRAVATION_HVA | 0 | 0 | 5 | 1 | 2 | 0 | 16 | 0 | 30% | Dose-dependant | 1 | 0 | 12 | – |
| CC[C@H]1[C@@H]2C[C@H]3[C@@H]4N(C)c5ccccc5[C@]45C[C@@H]([C@@H]2[C@H]5O)N3[C@@H]1O [AJMALINE] | 1 day - 4 years | 0 | yes | 0.1% | CHOLESTASE_PROLONGEE RC/AMIODARONE | 0 | 0 | 6 | 1 | 1 | 0 | 2 | 0 | 0% | Allergic | 28 | 0 | 29 | – |
| Oc1ncnc2[nH]ncc12 [ALLOPURINOL] | 6 days - 5 years | 0 | yes | 0.1% | CHOLANGITE RC/METHYLDOPA REACTIVATION_HSV6 | 0 | 0 | 26 | 0 | 0 | 12 | 14 | 4 | 3.1% | Allergic | 12 | 13 | 47 | – |
| O=C(O)CCCCCCNC1c2ccccc2CCc2ccccc21 [AMINEPTINE] | 1 day - 10 months | 0 | yes | 0% | RC/CLOMIPRAMINE | 0 | 0 | 17 | 1 | 0 | 0 | 6 | 5 | 0.6% | Allergic, Reactive metabolite | 18 | 0 | 20 | – |
| CC1(C)S[C@@H]2[C@H](NC(=O)[C@H](N)c3ccccc3)C(=O)N2[C@H]1C(=O)O [AMPICILLIN] | 2 days - 2 weeks | 0 | yes | 0% | #CBP CHOLECYSTITE_ACALCULEUSE | 0 | 0 | 3 | 0 | 0 | 1 | 7 | 0 | 20% | Allergic | 4 | 0 | 9 | – |
